In PMC11360128, “Rigid Macrocycle Metal Complexes as CXCR4 Chemokine Receptor Antagonists: Influence of Ring Size” (Pharmaceutics, 2024) one finds IC50 and CC50 data, which are given here for three compounds.

The test system of one data set is HIV-1 BaL (R5). Put plainly: microbe, parasite or virus in culture. Conditions: read-out: Anti-HIV Activity IC50 BaL (R5). An excerpt: (§1) Buffy coat preparations from healthy donors were obtained from the Blood Bank in Leuven, Belgium. For the chemokine binding studies, peripheral blood mononuclear cells (PBMCs) activated with phytohemagglutinin (PHA; Sigma, Belgium) were used. Human T-lymphocytic SUP-T1 cells and TZM-bl cells were obtained from the American Type Culture Collection (Rockville, MD) and maintained in RPMI-1640 supplemented with 10% foetal bovine serum (FBS). Human glioblastoma U87.MG and U87.CD4 cells were kindly provided by Dr. D. Littman and used to generate cells expressing CXCR4 or CCR5 [48]. The fluorescent chemokines CXCL12^AF647 and CCL5^AF647 were purchased from Almac. […]
(§2) TZM-bl cells were seeded in transparent 96-well plates at 1 × 10^4 cells per well in DMEM (Dulbecco’s modified Eagle medium; Life Technologies, Waltham, MA, USA) with 10% FBS and 10 mM HEPES. […] After 48 h of incubation, the assay plates were analysed. […] The luminescent signal of the lysed cell suspension was analysed in white 96-well plates on a Spectra-Max L luminescence microplate reader (Molecular Devices, Sunnyvale, CA, USA) after a 10 min incubation period in the dark. Luciferase activity induced by HIV-1 Tat protein expression was measured as an assessment of the amount of HIV replication. […]

Another data set has as its system HIV-1 NL4-3 (X4). The experiment in a line: HIV infection assay, Tat-regulated luciferase reporter in TZM-bl cells, CXCR4-using strain. Type of data set: cell-based. The note with it: replication of HIV-1 NL4-3 (X4) in TZM-bl cells, mean ± SEM, read-out: Anti-HIV Activity IC50 NL4-3 (X4).
Description: as §1, §2
Background: A reporter such as luciferase makes a cellular process visible.

The target in data set [1] is T1, CCR5 (Homo sapiens, UniProt P51681).
T1 construct: endogenous in cells
Put plainly: CCL3L1-induced intracellular calcium mobilisation in CCR5-transfected U87 cells (FLIPR). Type of data set: cell-based. The note with it: mean ± SEM, read-out: Ca^2+ Signalling Assay IC50 CCL3L1. The method, then: CXCR4- or CCR5-positive U87 glioblastoma/astrocytoma cells were loaded with the fluorescent calcium indicator Fluo-3 acetoxymethyl (Molecular Probes) at 4 µM in the assay buffer (Hanks’ balanced salt solution with 20 mM HEPES buffer and 0.2% bovine serum albumin, pH 7.4) for 45 min at room temperature. After thorough washing with the assay buffer, cells were pre-incubated for 10 min at 37 °C in the same buffer with the compounds of interest. The intracellular calcium mobilisation in response to CXCL12 (CXCR4 chemokine ligand) or CCL3L1 (CCR5 chemokine ligand) was then measured at 37 °C by monitoring the fluorescence as a function of time simultaneously in all the wells by using a fluorometric imaging plate reader (FLIPR; Molecular Devices, Sunnyvale, CA, USA).
The potency of the different metal complexes was investigated in a functional downstream receptor signalling assay. The inhibitory effect of the tested compounds was examined by Ca^2+ mobilisation studies with the natural ligands CXCL12 and CCL3L1 for the chemokine receptors CXCR4 and CCR5, respectively. The Ca^2+ ions released from the endoplasmic reticulum were measured over time in CXCR4- or CCR5-transfected U87 glioblastoma cells via their specific interaction with the fluorescent Ca^2+ indicator Fluo-3 [63].
In general terms: A change in cytosolic calcium serves as a functional read-out for many receptors and channels.

In data set [2] the target is T1, CCR5. Put plainly: CCL5^AF647 chemokine binding inhibition assay in PBMCs. The note with it: AF647-labelled CCL5 in PBMCs; mean ± SEM; read-out: Competition Binding Assay IC50 CCL5. The procedure: Human PBMCs were washed once with assay buffer (Hanks’ balanced salt solution with 20 mM HEPES buffer and 0.2% bovine serum albumin, pH 7.4) and then incubated for 15 min at room temperature with the sample diluted in assay buffer at the indicated concentrations. Subsequently, CXCL12^AF647 (25 ng/mL) or CCL5^AF647 (50 ng/mL) was added to the compound-incubated cells. The cells were incubated for 30 min at room temperature. Thereafter, the cells were washed twice in assay buffer, fixed in 1% paraformaldehyde in PBS, and analysed on the FL4 channel of a FACSCalibur flow cytometer equipped with a 635 nm red diode laser (Becton Dickinson, San Jose, CA, USA). The percentage of inhibition of CXCL12^AF647 or CCL5^AF647 binding was calculated according to the formula: [1 − ((MFI − MFINC)/(MFIPC − MFINC))] × 100, where MFI is the mean fluorescence intensity of the cells incubated with CXCL12^AF647 or CCL5^AF647 in the presence of the inhibitor, MFINC is the mean fluorescence intensity measured in the negative control (i.e., autofluorescence of unlabelled cells), and MFIPC is the mean fluorescence intensity of the positive control (i.e., cells exposed to CXCL12^AF647 or CCL5^AF647 alone).
Binding affinity and selectivity towards CXCR4 were further evaluated through competition binding assays using natural chemokine ligands, tagged with Alexa Fluor 647, as previously reported. […]

Another data set relates to PHA-stimulated PBMCs. Put plainly: Cellular cytotoxicity, microscopic evaluation and MTS assay. Type of data set: cell-based, human. Conditions: 48 h, MTS, read-out: Toxicity CC50 PMBCs. An excerpt:
(§3) Buffy coat preparations from healthy donors were obtained from the Blood Bank in Leuven, Belgium. For the chemokine binding studies, peripheral blood mononuclear cells (PBMCs) activated with phytohemagglutinin (PHA; Sigma, Belgium) were used. Human T-lymphocytic SUP-T1 cells and TZM-bl cells were obtained from the American Type Culture Collection (Rockville, MD) and maintained in RPMI-1640 supplemented with 10% foetal bovine serum (FBS). Human glioblastoma U87.MG and U87.CD4 cells were kindly provided by Dr. D. Littman and used to generate cells expressing CXCR4 or CCR5 [48]. The fluorescent chemokines CXCL12^AF647 and CCL5^AF647 were purchased from Almac. […] HIV-1 NL4-3 (CXCR4-using, X4) and HIV-1 BaL (CCR5-using, R5) were obtained through the AIDS Research and Reference Reagent Program (Division of AIDS, NIAID, NIH).
(§4) Cytotoxicity of the compounds was evaluated after 48 h of incubation at 37 °C in PHA-stimulated PBMCs (5 × 10^5 cells per well in culture medium). Each condition was tested in duplicate. Cytotoxicity was evaluated microscopically, and in addition, the cell viability was assessed using the colorimetric CellTiter 96 AQueous One Solution Cell Proliferation Assay (Promega, Fitchburg, WI, USA), which is based on the reduction of the tetrazolium salt MTS [3-(4,5-dimethylthiazol-2-yl)-5-(3-carboxymethoxyphenyl)-2-(4-sulfophenyl)-2H-tetrazolium] to formazan by metabolically active cells. Absorbance at 490 nm was measured with the Versa-Max ELISA microplate reader (Molecular Devices, Sunnyvale, CA, USA). The cytotoxic concentration 50 (CC50) of each compound was calculated based on the absorbance of negative (i.e., cells without compound) and positive (i.e., only culture medium) control samples.
(§5) The cellular cytotoxicity of all compounds was evaluated in PHA-stimulated PBMCs.
Background: Tetrazolium dyes change colour on reduction, which living cells bring about.

Experiment in data set [3]: as above
Type of data set: cell-based, human. The note with it: human, PHA-stimulated PBMCs, MTS, read-out: Toxicity CC50 PMBCs.
Description: as §3, §4, §5

By IC50 is commonly meant the midpoint of a concentration-inhibition curve. For orientation: CC50 means the concentration giving 50% cytotoxicity.

Where two headings read alike, the source gives them in different places.

T1 sequence (P51681 whole entry): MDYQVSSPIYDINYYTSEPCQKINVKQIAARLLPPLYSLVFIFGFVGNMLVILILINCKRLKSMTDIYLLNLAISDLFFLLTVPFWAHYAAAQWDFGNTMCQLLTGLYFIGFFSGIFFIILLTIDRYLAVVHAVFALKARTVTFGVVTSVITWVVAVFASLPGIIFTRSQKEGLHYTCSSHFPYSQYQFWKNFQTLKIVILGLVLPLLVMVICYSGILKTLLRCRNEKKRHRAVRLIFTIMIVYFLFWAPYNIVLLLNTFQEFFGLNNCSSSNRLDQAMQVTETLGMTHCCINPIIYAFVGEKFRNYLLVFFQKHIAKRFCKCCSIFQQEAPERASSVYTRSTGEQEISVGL

As to Maraviroc [reference compound], the IC50 in the data set with HIV-1 BaL (R5) (replication of HIV-1 BaL (R5) in TZM-bl cells, mean ± SEM) is 2.9 ± 1.2 nM; in the data set with HIV-1 NL4-3 (X4), more than 20000 nM.
Turning to `c1cc(CN2CCCNCCNCCCNCC2)ccc1CN1CCCNCCNCCCNCC1` [AMD3100, reference compound], the IC50 at CCR5 [1] was more than 20 µM; on CCR5 [2], more than 1000 nM; in the data set on HIV-1 BaL (R5) (Human immunodeficiency virus 1, BAL, TZM-bl), more than 20000 nM; in the data set on HIV-1 NL4-3 (X4) (Human immunodeficiency virus 1, NL43) it was 0.42 ± 0.14 nM. Moreover, the CC50 in the data set with PHA-stimulated PBMCs was more than 100 µM. Besides, the CC50 at 48 h in data set [3] is not below 100 µM.
Consider `[Cu+2].[Cu+2].c1cc(CN2CCCNCCNCCCNCC2)ccc1CN1CCCNCCNCCCNCC1` [Cu2L^1], for which, in the data set with PHA-stimulated PBMCs, the CC50 is not below 100 µM.
